Among the data in US8889704B2 (Array BioPharma Inc., priority 2011, dated 2014) are IC50 values, retold here.

Counter-ions that a name gives are not always drawn.

Assay type in all cases: biochemical
One test concerns the target PIM-1 (Homo sapiens, UniProt P11309). Put plainly: Enzyme PIM-1 Assay ([33P]ATP incorporation into PIM2tide, filter plate). The note with it: averaged IC50; 35 μM ATP, 7.5 μM PIM2tide, 0.25 nM PIM-1, 60 min at 22° C. Summed up:
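Ten-point, 3-fold dilution series (10 μM top, 2% DMSO final) tested for inhibition of 33P transfer from 35 μM ATP to 7.5 μM PIM2tide by 0.25 nM PIM-1. Reaction 60 min, 22 °C, pH 7.4 MOPS/MgCl2 buffer; phosphocellulose capture, scintillation counting, IC50 where fitted POC equals 50.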

The target of test [1] is T1, GST-tagged recombinant full-length human Pim-2 (Homo sapiens, UniProt Q9P1W9).
T1 construct: GST-tagged recombinant full-length human Pim-2; GST
T1 sequence (Q9P1W9 whole entry): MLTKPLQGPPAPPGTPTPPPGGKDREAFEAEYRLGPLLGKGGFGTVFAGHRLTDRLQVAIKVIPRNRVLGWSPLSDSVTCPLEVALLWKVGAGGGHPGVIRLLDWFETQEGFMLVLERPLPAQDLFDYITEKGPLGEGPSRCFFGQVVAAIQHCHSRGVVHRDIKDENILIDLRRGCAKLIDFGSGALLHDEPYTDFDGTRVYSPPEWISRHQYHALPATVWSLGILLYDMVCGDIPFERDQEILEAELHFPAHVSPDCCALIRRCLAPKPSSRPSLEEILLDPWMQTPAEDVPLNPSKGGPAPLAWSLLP
Put plainly: PIM-2 Assay (as Example A). The note with it: averaged IC50; 4 μM ATP, 1.0 μM PIM2tide, 1.5 nM Pim-2. Summed up: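 IC50 was derived by 4-parameter logistic fitting of percent-of-control data over a 10-point, 3-fold series (highest 10 μM, 2% DMSO). Reactions held 1.5 nM GST-Pim-2 (full-length, human), 4 μM [γ-33P]ATP and 1.0 μM PIM2tide for 60 min at 22 °C, pH 7.4; 33P-peptide captured on P81 filters.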

The next test concerns the target recombinant rat PIM-3 (Rattus norvegicus, UniProt O70444). Description: PIM-3 Assay (as Example A). The note with it: averaged IC50; 30 μM ATP, 3.75 μM PIM2tide, 0.5 nM PIM-3. The essentials:
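33P incorporation from 30 μM [γ-33P]ATP into 3.75 μM PIM2tide by 0.5 nM rat PIM-3, 60 min at 22 °C in pH 7.4 MOPS buffer, read by P81 filter capture and scintillation counting. Compounds tested in 3-fold dilutions up to 10 μM final, 2% DMSO; percent-of-control data fitted by 4-parameter logistic for IC50.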

PIM-1, sequence (P11309 whole entry, species assumed): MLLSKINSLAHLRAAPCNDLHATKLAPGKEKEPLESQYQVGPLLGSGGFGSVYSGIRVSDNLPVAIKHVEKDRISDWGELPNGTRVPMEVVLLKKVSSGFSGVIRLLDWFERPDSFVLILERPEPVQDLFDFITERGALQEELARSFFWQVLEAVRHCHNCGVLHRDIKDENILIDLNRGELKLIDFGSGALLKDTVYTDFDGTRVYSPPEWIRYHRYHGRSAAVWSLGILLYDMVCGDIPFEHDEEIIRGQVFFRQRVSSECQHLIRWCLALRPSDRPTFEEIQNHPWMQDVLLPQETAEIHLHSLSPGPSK

What is called IC50 is the concentration that inhibits the measured activity by half. Turning to `FC(F)(F)C(c1ccc2nnc(-c3ccc4cccc(OCC5CC5)c4n3)n2c1)N1C[C@H]2C[C@@H]1CN2` (stereo partly drawn) [Example 25, 2-(6-(1-((1R,4R)-2,5-diazabicyclo[2.2.1]heptan-2-yl)-2,2,2-trifluoroethyl)-[1,2,4]triazolo[4,3-a]pyridin-3-yl)-8-(cyclopropylmethoxy)quinoline dihydrochloride], the IC50 worked out at 0.8 nM at PIM-1, 86 nM in test [1] and 5.1 nM at recombinant rat PIM-3.
Turning to `N[C@@H]1[C@H]2CN(C(c3ccc4nnc(-c5ccc6cccc(OCC7CC7)c6n5)n4c3)C(F)(F)F)C[C@@H]12` (stereo partly drawn) [Example 26, (1R,5S,6S)-3-(1-(3-(8-(cyclopropylmethoxy)quinolin-2-yl)-[1,2,4]triazolo[4,3-a]pyridin-6-yl)-2,2,2-trifluoroethyl)-3-azabicyclo[3.1.0]hexanesan-6-amine dihydrochloride], the IC50 is 2.12 nM at PIM-1, 796 nM in test [1] and over 100 nM at recombinant rat PIM-3.
On to `CC1(N)CCN(C(c2ccc3nnc(-c4ccc5cccc(OCC6CC6)c5n4)n3c2)C(F)(F)F)C1` (stereo not drawn) [Example 27, 1-(1-(3-(8-(cyclopropylmethoxy)quinolin-2-yl)-[1,2,4]triazolo[4,3-a]pyridin-6-yl)-2,2,2-trifluoroethyl)-3-methylpyrrolidin-3-amine dihydrochloride], for which the IC50 is 0.8 nM against PIM-1, 334 nM in test [1] and 25 nM on recombinant rat PIM-3.
The matching figures for `CC1(N)CCN(C(c2ccc3nnc(-c4ccc5cccc(O)c5n4)n3c2)C(F)(F)F)C1` (stereo not drawn) [Example 28, 2-(6-(1-(3-amino-3-methylpyrrolidin-1-yl)-2,2,2-trifluoroethyl)-[1,2,4]triazolo[4,3-a]pyridin-3-yl)quinolin-8-ol dihydrochloride]: 1.08 nM, over 1000 nM and 8.2 nM.
The like results for `N[C@H]1CCN(C(c2ccc3nnc(-c4ccc5ccc(C(F)(F)F)cc5n4)n3c2)C(F)(F)F)C1` (stereo partly drawn) [Example 29, (3S)-1-(2,2,2-trifluoro-1-(3-(7-(trifluoromethyl)quinolin-2-yl)-[1,2,4]triazolo[4,3-a]pyridin-6-yl)ethyl)pyrrolidin-3-amine dihydrochloride] were, in that order, 5.12 nM, over 1000 nM and 47 nM.
Regarding `CC(C)NC(=O)c1ccc2ccc(-c3nnc4ccc(C(N5CC[C@H](N)C5)C(F)(F)F)cn34)nc2c1` (stereo partly drawn) [Example 30, 2-(6-(1-((S)-3-aminopyrrolidin-1-yl)-2,2,2-trifluoroethyl)-[1,2,4]triazolo[4,3-a]pyridin-3-yl)-N-isopropylquinoline-7-carboxamide dihydrochloride], the IC50 against PIM-1 worked out at 0.32 nM; in test [1], 63 nM; at recombinant rat PIM-3 it was 0.9 nM.
Consider `CC(C)Oc1cccc2ccc(-c3nnc4ccc([C@@H](N5CC[C@H](N)C5)C(F)(F)F)cn34)nc12` [Example 31, (S)-1-((R)-2,2,2-trifluoro-1-(3-(8-isopropoxyquinolin-2-yl)-[1,2,4]triazolo[4,3-a]pyridin-6-yl)ethyl)pyrrolidin-3-amine dihydrochloride], for which the IC50 against PIM-1 worked out at 0.08 nM; in test [1] it was 23 nM; on recombinant rat PIM-3 it was 0.4 nM.
Take `CC(C)N[C@H]1CCN(C(c2ccc3nnc(-c4ccc5cccc(OCC6CC6)c5n4)n3c2)C(F)(F)F)C1` (stereo partly drawn) [Example 32, (3S)-1-(1-(3-(8-(cyclopropylmethoxy)quinolin-2-yl)-[1,2,4]triazolo[4,3-a]pyridin-6-yl)-2,2,2-trifluoroethyl)-N-isopropylpyrrolidin-3-amine dihydrochloride]: the half-maximal inhibitory concentration (IC50) at PIM-1 amounted to 0.53 nM; in test [1], 266 nM; on recombinant rat PIM-3, 10 nM.
In the case of `COC[C@@H](C)Oc1cccc2ccc(-c3nnc4ccc(C(C)N5CC[C@H](N)C5)cn34)nc12` (stereo partly drawn) [Example 33, (3S)-1-(1-(3-(8-((R)-1-methoxypropan-2-yloxy)quinolin-2-yl)-[1,2,4]triazolo[4,3-a]pyridin-6-yl)ethyl)pyrrolidin-3-amine trihydrochloride], the half-maximal inhibitory concentration (IC50) was determined as 1.41 nM against PIM-1, 759 nM in test [1] and 5.9 nM at recombinant rat PIM-3.
Consider `CC(C)NC(=O)c1ccc2ccc(-c3nnc4ccc([C@@H](N5CC[C@H](N)C5)C(F)(F)F)cn34)nc2c1` [Example 34, 2-(6-((R)-1-((S)-3-aminopyrrolidin-1-yl)-2,2,2-trifluoroethyl)-[1,2,4]triazolo[4,3-a]pyridin-3-yl)-N-isopropylquinoline-7-carboxamide dihydrochloride], for which the half-inhibitory concentration (IC50) against PIM-1 came to 0.2 nM; in test [1], 41 nM; on recombinant rat PIM-3, 0.3 nM.
With `CN(C)C(=O)c1ccc2ccc(-c3nnc4ccc([C@@H](N5CC[C@H](N)C5)C(F)(F)F)cn34)nc2c1` [Example 35, 2-(6-((R)-1-((S)-3-aminopyrrolidin-1-yl)-2,2,2-trifluoroethyl)-[1,2,4]triazolo[4,3-a]pyridin-3-yl)-N,N-dimethylquinoline-7-carboxamide dihydrochloride], the 50% inhibitory concentration (IC50) is 4.52 nM against PIM-1, over 1000 nM in test [1] and 39 nM at recombinant rat PIM-3.
Take `CN[C@H]1CCN([C@H](c2ccc3nnc(-c4ccc5cccc(OC(C)C)c5n4)n3c2)C(F)(F)F)C1` [Example 36, (S)—N-methyl-1-((R)-2,2,2-trifluoro-1-(3-(8-isopropoxyquinolin-2-yl)-[1,2,4]triazolo[4,3-a]pyridin-6-yl)ethyl)pyrrolidin-3-amine dihydrochloride]: the IC50 on PIM-1 worked out at 0.18 nM; in test [1], 32 nM; at recombinant rat PIM-3, 2 nM.
For the compound `CCc1cccc2ccc(-c3nnc4ccc([C@@H](N5CC[C@H](N)C5)C(F)(F)F)cn34)nc12` [Example 37, (S)-1-((R)-1-(3-(8-ethylquinolin-2-yl)-[1,2,4]triazolo[4,3-a]pyridin-6-yl)-2,2,2-trifluoroethyl)pyrrolidin-3-amine dihydrochloride], the figures for the IC50 (against PIM-1; in test [1]; at recombinant rat PIM-3) were 0.11 nM, 22 nM and 0.8 nM, respectively.
The matching figures for `CCNC(=O)c1ccc2ccc(-c3nnc4ccc([C@@H](N5CC[C@H](N)C5)C(F)(F)F)cn34)nc2c1` [Example 38, 2-(6-((R)-1-((S)-3-aminopyrrolidin-1-yl)-2,2,2-trifluoroethyl)-[1,2,4]triazolo[4,3-a]pyridin-3-yl)-N-ethylquinoline-7-carboxamide dihydrochloride]: 0.23 nM, 56 nM and 0.5 nM.
With `N[C@H]1CCN([C@H](c2ccc3nnc(-c4ccc5cccc(C6CC6)c5n4)n3c2)C(F)(F)F)C1` [Example 39, (S)-1-((R)-1-(3-(8-cyclopropylquinolin-2-yl)-[1,2,4]triazolo[4,3-a]pyridin-6-yl)-2,2,2-trifluoroethyl)pyrrolidin-3-amine dihydrochloride], the concentration for half-maximal inhibition (IC50) came to 0.08 nM against PIM-1, 18 nM in test [1] and 1 nM at recombinant rat PIM-3.
For `N[C@H]1CCN([C@H](c2ccc3nnc(-c4ccc5cccc(OC(F)(F)F)c5n4)n3c2)C(F)(F)F)C1` [Example 40, (S)-1-((R)-2,2,2-trifluoro-1-(3-(8-(trifluoromethoxy)quinolin-2-yl)-[1,2,4]triazolo[4,3-a]pyridin-6-yl)ethyl)pyrrolidin-3-amine dihydrochloride], the IC50 came out at 0.21 nM at PIM-1, 78 nM in test [1] and 4.7 nM on recombinant rat PIM-3.
Take `CC(C)c1cccc2ccc(-c3nnc4ccc([C@@H](N5CC[C@H](N)C5)C(F)(F)F)cn34)nc12` [Example 41, (S)-1-((R)-2,2,2-trifluoro-1-(3-(8-isopropylquinolin-2-yl)-[1,2,4]triazolo[4,3-a]pyridin-6-yl)ethyl)pyrrolidin-3-amine dihydrochloride]: the values for the IC50 (against PIM-1; in test [1]; on recombinant rat PIM-3) were 0.11 nM, 16 nM and 2 nM, respectively.
The matching figures for `CNC(=O)c1ccc2ccc(-c3nnc4ccc([C@@H](N5CC[C@H](N)C5)C(F)(F)F)cn34)nc2c1` [Example 42, 2-(6-((R)-1-((S)-3-aminopyrrolidin-1-yl)-2,2,2-trifluoroethyl)-[1,2,4]triazolo[4,3-a]pyridin-3-yl)-N-methylquinoline-7-carboxamide dihydrochloride]: 0.26 nM, 49 nM and 0.5 nM.
In the case of `CN[C@H]1CCN([C@H](c2ccc3nnc(-c4ccc5cccc(OCC6CC6)c5n4)n3c2)C(F)(F)F)C1` [Example 43, (S)-1-((R)-1-(3-(8-(cyclopropylmethoxy)quinolin-2-yl)-[1,2,4]triazolo[4,3-a]pyridin-6-yl)-2,2,2-trifluoroethyl)-N-methylpyrrolidin-3-amine dihydrochloride], the IC50 at PIM-1 was 0.13 nM; in test [1], 65 nM; on recombinant rat PIM-3 it was 1.5 nM.
`CC(C)C(=O)Nc1ccc2ccc(-c3nnc4ccc(C(N5CC[C@H](N)C5)C(F)(F)F)cn34)nc2c1` (stereo partly drawn) [Example 44, N-(2-(6-(1-((S)-3-aminopyrrolidin-1-yl)-2,2,2-trifluoroethyl)-[1,2,4]triazolo[4,3-a]pyridin-3-yl)quinolin-7-yl)isobutyramide]: the IC50 at PIM-1 was determined as 0.13 nM; in test [1] it was 29 nM; at recombinant rat PIM-3, 0.2 nM.
